One block for each compound: values may come before it.
What was measured:
[1] = design: method as in PMID 34355087; conditions: cited from earlier work
[2] = Hepatic microsomal metabolic stability, human; assay type: in vitro ADME; conditions: 1 mM NADPH, 37 °C
Protocol: (§1) The stabilities of ARV-110 in the hepatic microsomal fraction and plasma were investigated for three species (human, rat, and mouse). For the microsomal stability study, a reaction mixture containing hepatic microsomes (protein concentration, 0.5 mg/mL) and 1 mM NADPH in phosphate buffer (pH 7.4) was pre-incubated in a thermomixer (5 min, 37 °C, 200 rpm). To initiate the metabolic reaction, 5 μL of ARV-110 in methanol (100 μM) was added to the pre-incubated mixture to obtain a final ARV-110 concentration of 1 μM. The metabolic reactions of buspirone and verapamil were conducted simultaneously as positive controls. For plasma stability measurements, 5 μL of ARV-110 in methanol (100 μM) was added to pre-warmed blank plasma to obtain a final ARV-110 concentration of 1 μM. Procaine was used to control plasma stability. The temperature was maintained and agitation was continued throughout the reaction, and sampling was conducted at predetermined time points (0 (beginning of the reaction), 15; 30; 60; 120; […] min). For the microsomal and plasma stability measurements, the reaction was conducted for 120 and 240 min, respectively. […] The elimination rate constant (ke) was determined as the slope of the linear regression between the log of the percentage of analyte remaining and the incubation time. […]

[3] = In vitro plasma stability, human; assay type: in vitro ADME; conditions: 37 °C, incubation 4 h, read-out: T1/2 in plasma
Protocol: as §1

[4] = Stability of ARV-110 QC samples in mouse plasma under storage conditions; assay type: in vitro ADME
Protocol: (§2) The sample stability in rat and mouse plasma was evaluated at low and high QC concentrations. The short-term stability was evaluated at room temperature for 1 h, whereas the long-term stability was determined by assaying samples stored at −20 °C for 4 weeks. […] The freeze–thaw stability was tested by subjecting samples to three freeze–thaw cycles.

[5] = Hepatic microsomal metabolic stability, mouse; assay type: in vitro ADME; conditions: 1 mM NADPH, 37 °C
Protocol: as §1

[6] = design: method as in doi:10.1200/JCO.2020.38.15_suppl.3500; conditions: preliminary data from a phase I clinical trial; cited from earlier work
[7] = Pharmacokinetic study in rats (IV and PO); assay type: in vivo, Sprague Dawley (SD) rats; conditions: rat; for bioavailability: oral 5 mg/kg vs IV 2 mg/kg
Protocol: (§3) The validated LC-MS/MS method was applied to determine ARV-110 in pharmacokinetic studies in rats and mice. Animal studies were approved in advance by the Institutional Animal Care and Use Committee of Chungnam National University (202103A-CNU-053; Daejeon, Republic of Korea). Male Sprague Dawley (SD) rats (7 weeks old, 210–251 g) and male ICR mice (6 weeks old, 25–32 g) were purchased from Orient Bio Inc. (Seongnam, Republic of Korea). Their habitat was maintained under a 12 h light–dark cycle at a room temperature of 20–25 °C and a relative humidity of 40–60%. The animals had free access to food and water. Food fasting was started 14 or 4 h prior to drug administration to rats and mice, respectively. After drug administration, the animals were not given food or water for another 4 h.
The drug solution for the pharmacokinetic study in rats was prepared by dissolving ARV-110 in a dimethyl sulfoxide (DMSO)–PEG400–Cremophor EL–saline (5:40:5:50, v/v/v/v). The drug solution was administered to the rats via a single IV bolus into the tail vein at a dose of 2 mg/kg or PO using a gavage needle at a dose of 5 mg/kg. Blood samples (100 μL) were collected from the jugular vein using heparinized syringes at 0.083 (IV only), 0.25, 0.5, 1, 2, 4, 6, 8, 24, and 48 h after ARV-110 administration. Plasma was collected from the blood by centrifugation, and a 20 μL aliquot of plasma was stored at −20 °C until analysis.
(§4) For plasma sample preparation, 20 μL of rat or mouse plasma was added to 20 μL of IS solution (10 μg/mL) and 110 μL of acetonitrile. After vigorous mixing for 10 min, the mixture was centrifuged at 13,500 rpm for 10 min. An aliquot of the supernatant (100 μL) was collected for analysis. Cmax and Tmax were determined directly from the plasma concentration–time profile of each animal. To determine other pharmacokinetic parameters, the experimental data were analyzed using Phoenix® 8.2 software (Certara L.P., Princeton, NJ, USA), as described previously. All data are presented as mean ± SD.

AR = tested on: AR; design: method as in PMID 31885879, PMID 30271980; conditions: various prostate cancer cell lines; cited from earlier work
resistance models = tested on: resistance models; design: method as in PMID 31885879, PMID 30271980; conditions: cited from earlier work
[8] = Stability of ARV-110 QC samples in rat plasma under storage conditions; assay type: in vitro ADME
Protocol: as §2

[9] = Hepatic microsomal metabolic stability, rat; assay type: in vitro ADME; conditions: 1 mM NADPH, 37 °C
Protocol: as §1

[10] = In vitro plasma stability, mouse; assay type: in vitro ADME; conditions: 37 °C, incubation 4 h, read-out: T1/2 in plasma
Protocol: as §1

[11] = In vitro plasma stability, rat; assay type: in vitro ADME; conditions: 37 °C, incubation 4 h, read-out: T1/2 in plasma
Protocol: as §1

[12] = Pharmacokinetic study in mice (IV and PO); assay type: in vivo, ICR mice; conditions: mouse; for bioavailability: oral 5 mg/kg vs IV 2 mg/kg, after dose normalization
Protocol: as §3
The drug solution for the pharmacokinetic study in mice was prepared by dissolving ARV-110 in DMSO–PEG400–Cremophor EL–saline (5:30:2.5:62.5, v/v/v/v). The drug solution was administered via an IV bolus into the tail vein at a dose of 2 mg/kg or PO at a dose of 5 mg/kg. Blood samples (50 μL) were alternatively collected from the right retro-orbital plexus at 0.05 (IV only), 0.12, 0.5, 1, 2, 4, 8, 24, and 48 h after ARV-110 administration. Plasma was obtained by centrifuging the blood at 17,600× g for 5 min, and a 20 μL aliquot of plasma was stored at −20 °C until analysis.
as §4

[13] = 15 min at room temperature (25 °C), nominal 5 ng/mL
[14] = 15 min at room temperature (25 °C), nominal 2500 ng/mL
[15] = 1 h at room temperature (25 °C), nominal 5 ng/mL
[16] = 1 h at room temperature (25 °C), nominal 2500 ng/mL
[17] = 4 h on ice cold, nominal 5 ng/mL
[18] = 4 h on ice cold, nominal 2500 ng/mL
[19] = Freeze–thaw (3 cycles), nominal 5 ng/mL
[20] = Freeze–thaw (3 cycles), nominal 2500 ng/mL
[21] = Long term (4 weeks at −20 °C), nominal 5 ng/mL
[22] = Long term (4 weeks at −20 °C), nominal 2500 ng/mL
[23] = Processed sample (autosampler, 10 °C, 24 h), nominal 5 ng/mL
[24] = Processed sample (autosampler, 10 °C, 24 h), nominal 2500 ng/mL
[25] = male, Sprague Dawley, in vivo, intravenous, 2 mg/kg
[26] = male, Sprague Dawley, in vivo, oral, 5 mg/kg
[27] = male, ICR, in vivo, intravenous, 2 mg/kg
[28] = male, ICR, in vivo, oral, 5 mg/kg

Compound: Nc1cccc2c1C(=O)N(C1CCC(=O)NC1=O)C2=O (stereo not drawn) [pomalidomide]
- logP [1]: 0.01
- pKa [1]: 1.89

- drug remaining after incubation for 2 h ([2]; human hepatic microsomes 0.5 mg/mL, 1 μM): 92.07%
- half-life at 1 μM ([2]; pH 7.4, human hepatic microsomes 0.5 mg/mL, read-out: elimination half-life (T1/2) in hepatic microsomes): 986 min
- half-life at 1 μM [3]: 24 min
- Stability in Mouse Plasma (%) [4, 13]: 99.43 ± 2.93%
- Stability in Mouse Plasma (%) [4, 14]: 95.74 ± 5.74%
- Stability in Mouse Plasma (%) [4, 15]: 83.70 ± 14.24%
- Stability in Mouse Plasma (%) [4, 16]: 78.91 ± 4.93%
- Stability in Mouse Plasma (%) [4, 17]: 93.01 ± 5.30%
- Stability in Mouse Plasma (%) [4, 18]: 94.09 ± 5.23%
- Stability in Mouse Plasma (%) [4, 19]: 104.0 ± 6.1%
- Stability in Mouse Plasma (%) [4, 20]: 103.2 ± 4.1%
- Stability in Mouse Plasma (%) [4, 21]: 97.97 ± 10.23%
- Stability in Mouse Plasma (%) [4, 22]: 97.59 ± 3.78%
- Stability in Mouse Plasma (%) [4, 23]: 98.77 ± 3.58%
- Stability in Mouse Plasma (%) [4, 24]: 98.62 ± 3.54%
- ARV-110 remained in QC samples ([4]; mouse plasma, short-term storage, 1 h at 25 °C): ~80%
- drug remaining after incubation for 2 h ([5]; mouse hepatic microsomes 0.5 mg/mL, 1 μM): 80.95%
- half-life at 1 μM ([5]; pH 7.4, mouse hepatic microsomes 0.5 mg/mL, read-out: elimination half-life (T1/2) in hepatic microsomes): 415 min
- AUC(0-inf) [7, 25]: 4860 ± 381 ng·h/mL
- AUC(0-t) [7, 25]: 4530 ± 288 ng·h/mL
- Cmax [7, 25]: 2520 ± 292 ng/mL
- MRT [7, 25]: 10.2 ± 0.48 h
- Tmax [7, 25]: 0.083 h
- clearance [7, 25]: 6.89 mL/min/kg
- half-life [7, 25]: 817 ± 85.8 min
- Vd ([7]; male, Sprague Dawley, in vivo, intravenous, 2 mg/kg, read-out: Vss): 5.78 ± 0.32 L/kg
- AUC(0-inf) [7, 26]: 2890 ± 318 ng·h/mL
- AUC(0-t) [7, 26]: 2420 ± 222 ng·h/mL
- Cmax [7, 26]: 110 ± 9.2 ng/mL
- MRT [7, 26]: 16.4 ± 1.16 h
- Tmax [7, 26]: 5.5 ± 1.92 h
- half-life [7, 26]: 1060 ± 193 min
- bioavailability ([7]; male, Sprague Dawley, in vivo, 5 mg/kg, read-out: Bioavailability): 23.8%
- bioavailability [7]: 23.83 ± 2.62%
- Stability in Rat Plasma (%) [8, 13]: 100.6 ± 7.8%
- Stability in Rat Plasma (%) [8, 14]: 96.99 ± 2.27%
- Stability in Rat Plasma (%) [8, 15]: 68.73 ± 7.74%
- Stability in Rat Plasma (%) [8, 16]: 68.82 ± 1.08%
- Stability in Rat Plasma (%) [8, 17]: 92.20 ± 1.38%
- Stability in Rat Plasma (%) [8, 18]: 92.21 ± 2.24%
- Stability in Rat Plasma (%) [8, 19]: 103.2 ± 3.9%
- Stability in Rat Plasma (%) [8, 20]: 101.8 ± 3.4%
- Stability in Rat Plasma (%) [8, 21]: 100.6 ± 5.6%
- Stability in Rat Plasma (%) [8, 22]: 100.5 ± 5.0%
- Stability in Rat Plasma (%) [8, 23]: 99.60 ± 2.91%
- Stability in Rat Plasma (%) [8, 24]: 102.6 ± 4.1%
- ARV-110 remained in QC samples ([8]; rat plasma, short-term storage, 1 h at 25 °C): approximately 69%
- half-life at 1 μM ([9]; pH 7.4, rat hepatic microsomes 0.5 mg/mL, read-out: elimination half-life (T1/2) in hepatic microsomes): 2220 min
- drug remaining after incubation for 2 h ([9]; rat hepatic microsomes 0.5 mg/mL, 1 μM): 96.60%
- half-life at 1 μM [10]: 93 min
- half-life at 1 μM [11]: 44 min
- AUC(0-inf) [12, 27]: 11300 ng·h/mL
- AUC(0-t) [12, 27]: 10800 ng·h/mL
- Cmax [12, 27]: 1260 ± 99 ng/mL
- MRT [12, 27]: 13.1 ± 0.9 h
- Tmax [12, 27]: 0.05 h
- clearance [12, 27]: 3.02 mL/min/kg
- half-life [12, 27]: 685 ± 30.6 min
- Vd ([12]; male, ICR, in vivo, intravenous, 2 mg/kg, read-out: Vss): 2.37 ± 0.402 L/kg
- AUC(0-inf) [12, 28]: 10700 ng·h/mL
- AUC(0-t) [12, 28]: 9870 ± 1000 ng·h/mL
- Cmax [12, 28]: 612 ± 88.4 ng/mL
- MRT [12, 28]: 12.9 ± 0.84 h
- Tmax [12, 28]: 4.8 ± 1.79 h
- half-life [12, 28]: 874 ± 149 min
- bioavailability ([12]; male, ICR, in vivo, 5 mg/kg, read-out: Bioavailability): 37.9%
- bioavailability [12]: 37.89 ± 4.16%
Compound: N#Cc1ccc(O[C@H]2CC[C@H](NC(=O)c3ccc(N4CCC(CN5CCN(c6cc7c(cc6F)C(=O)N(C6CCC(=O)NC6=O)C7=O)CC5)CC4)nn3)CC2)cc1Cl (stereo partly drawn) [ARV-110, bavdegalutamide]
- safety and tolerability in patients [6]: satisfactory safety and tolerability
- degradation of AR (AR): 95–98%
- reduction of tumor growth (resistance models): 70–100%

Source: article PMC8954769, “Development of an LC-MS/MS Method for ARV-110, a PROTAC Molecule, and Applications to Pharmacokinetic Studies” (Molecules, 2022)
